Reference: patent US20210403435A1, “HERBICIDAL COMPOUNDS” (SYNGENTA CROP PROTECTION AG, priority 2018, published 2021)

Columns and labels:
Test in all cases: Post-emergence efficacy, glasshouse, evaluated after 13 days
Format in all cases: in vivo
[1] = system: Euphorbia heterophylla (EPHHL); settings: Euphorbia heterophylla, 312 h; post-emergence application, 500 g/Ha, evaluated after 13 days; read-out: Control of weed species EPHHL (100=total damage to plant; 0=no damage to plant)
Summary of the method: (§1)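 Glasshouse post-emergence test: 14-day plants sprayed, then maintained at 24/16 °C day/night, 14 h photoperiod, 65% humidity. Evaluation at day 13 uses a percentage damage scale (100 = plant fully damaged).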

Setaria faberi (SETFA) = settings: Setaria faberi, 312 h; post-emergence application, 500 g/Ha, evaluated after 13 days; read-out: Control of weed species SETFA (100=total damage to plant; 0=no damage to plant)
Summary of the method: as §1

[2] = system: Chenopodium album (CHEAL); settings: Chenopodium album, 312 h; post-emergence application, 500 g/Ha, evaluated after 13 days; read-out: Control of weed species CHEAL (100=total damage to plant; 0=no damage to plant)
Summary of the method: as §1

Eleusine indica (ELEIN) = settings: Eleusine indica, 312 h; post-emergence application, 500 g/Ha, evaluated after 13 days; read-out: Control of weed species ELEIN (100=total damage to plant; 0=no damage to plant)
Summary of the method: as §1

[3] = system: Ipomoea hederacea (IPOHE); settings: Ipomoea hederacea, 312 h; post-emergence application, 500 g/Ha, evaluated after 13 days; read-out: Control of weed species IPOHE (100=total damage to plant; 0=no damage to plant)
Summary of the method: as §1

[4] = system: Echinochloa crus-galli (ECHCG); settings: Echinochloa crus-galli, 312 h; post-emergence application, 500 g/Ha, evaluated after 13 days; read-out: Control of weed species ECHCG (100=total damage to plant; 0=no damage to plant)
Summary of the method: as §1

[5] = system: Amaranthus palmeri (AMAPA); settings: Amaranthus palmeri, 312 h; post-emergence application, 500 g/Ha, evaluated after 13 days; read-out: Control of weed species AMAPA (100=total damage to plant; 0=no damage to plant)
Summary of the method: as §1

[6] = system: Digitaria sanguinalis (DIGSA); settings: Digitaria sanguinalis, 312 h; post-emergence application, 500 g/Ha, evaluated after 13 days; read-out: Control of weed species DIGSA (100=total damage to plant; 0=no damage to plant)
Summary of the method: as §1

Lolium perenne (LOLPE) = settings: Lolium perenne, 312 h; post-emergence application, 500 g/Ha, evaluated after 13 days; read-out: Control of weed species LOLPE (100=total damage to plant; 0=no damage to plant)
Summary of the method: as §1

Row | Structure (SMILES) | pest or weed control at 500 g/ha [1] [%] | pest or weed control at 500 g/ha (Setaria faberi (SETFA)) [%] | pest or weed control at 500 g/ha [2] [%] | pest or weed control at 500 g/ha (Eleusine indica (ELEIN)) [%] | pest or weed control at 500 g/ha [3] [%] | pest or weed control at 500 g/ha [4] [%] | pest or weed control at 500 g/ha [5] [%] | pest or weed control at 500 g/ha [6] [%] | pest or weed control at 500 g/ha (Lolium perenne (LOLPE)) [%]
1 | CC1CC1NC(=O)c1cc[n+](CCC(=O)O)nc1 (stereo not drawn) [Compound A101] | 50 | 90 | 100 | 70 | 50 | 90 | 100 | 100 | 80
2 | O=C(O)CC[n+]1ccc(C(=O)Nc2nccs2)cn1 [Compound A102] | 20 | 10 | 60 | 0 | 20 | 0 | 100 | 0 | 0
3 | C[S+]([O-])CCNC(=O)c1cc[n+](CCC(=O)O)nc1 (stereo not drawn) [Compound A103] | 50 | 100 | 90 | 90 | 50 | 80 | 90 | 90 | 40
4 | CS(=O)(=O)CCNC(=O)c1cc[n+](CCC(=O)O)nc1 [Compound A104] | 100 | 100 | 100 | 100 | 80 | 70 | 100 | 100 | 70
5 | O=C(O)CC[n+]1ccc(C(=O)Nc2ccc(F)cc2F)cn1 [Compound A106] | 60 | 90 | 50 | 70 | 30 | 10 | 100 | 40 | 50
6 | CN(CC#N)C(=O)c1cc[n+](CCC(=O)O)nc1 [Compound A107] | 100 | 60 | 20 | 20 | 20 | 60 | 100 | 40 | 0
7 | O=C(O)CC[n+]1ccc(C(=O)N2CCS(=O)(=O)CC2)cn1 [Compound A108] | 80 | 90 | 100 | 80 | 70 | 70 | 100 | 90 | 40
8 | O=C(O)CC[n+]1ccc(C(=O)N2CC[S+]([O-])CC2)cn1 [Compound A109] | 90 | 90 | 90 | 90 | 60 | 70 | 100 | 80 | 30
9 | CN(C)S(=O)(=O)CCNC(=O)c1cc[n+](CCC(=O)O)nc1 [Compound A110] | 60 | 90 | 50 | 30 | 20 | 50 | 90 | 100 | 60
10 | CNS(=O)(=O)CCNC(=O)c1cc[n+](CCC(=O)O)nc1 [Compound A111] | 90 | 100 | 90 | 100 | 40 | 90 | 100 | 100 | 70
11 | O=C(O)CC[n+]1ccc(C(=O)N2CCSCC2)cn1 [Compound A112] | 90 | 90 | 90 | 70 | 50 | 40 | 100 | 100 | 30
12 | N#CCCNC(=O)c1cc[n+](CCC(=O)O)nc1 [Compound A113] | 90 | 100 | 80 | 100 | 30 | 90 | 100 | 100 | 90
13 | C#CCCNC(=O)c1cc[n+](CCC(=O)O)nc1 [Compound A114] | 80 | 100 | 90 | 100 | 60 | 90 | 100 | 100 | 80
14 | O=C(O)CC[n+]1ccc(C(=O)NCc2ccccn2)cn1 [Compound A115] | 70 | 70 | 70 | 100 | 20 | 70 | 100 | 70 | 70
15 | Cn1nccc1NC(=O)c1cc[n+](CCC(=O)O)nc1 [Compound A116] | 50 | 40 | 20 | 40 | 10 | 40 | 40 | 60 | 10
16 | CC[S+]([O-])CCNC(=O)c1cc[n+](CCC(=O)O)nc1 (stereo not drawn) [Compound A117] | 90 | 90 | 80 | 50 | 40 | 60 | 100 | 100 | 50
17 | CCS(=O)(=O)CCNC(=O)c1cc[n+](CCC(=O)O)nc1 [Compound A118] | 90 | 90 | 100 | 50 | 40 | 40 | 100 | 100 | 50
18 | CCSCCNC(=O)c1cc[n+](CCC(=O)O)nc1 [Compound A120] | 90 | 70 | 80 | 50 | 10 | 50 | 100 | 100 | 40
19 | CC(CS(C)(=O)=O)NC(=O)c1cc[n+](CCC(=O)O)nc1 (stereo not drawn) [Compound A122] | 70 | 60 | 90 | 70 | 60 | 90 | 100 | 100 | 60
20 | CC(CO)NC(=O)c1cc[n+](CCC(=O)O)nc1 (stereo not drawn) [Compound A123] | 90 | 100 | 90 | 100 | 50 | 90 | 100 | 100 | 50
